In ChEMBL document CHEMBL3301448, “MMV Malaria Box screening against Toxoplasma gondii and Entamoeba histolytica”:

How the values were obtained:
Entamoeba histolytica = assay: MMV: Primary screening was performed with each compound at a 30 uM final concentration and in triplicate in sealed 96-well polystyrene microtiter plates. Parasite inocula (100 ul) comprising 20000 parasites/ml were added to each well and grown at 37 degrees C in a humidified atmosphere of 5% CO2 for 72 h. Positive controls consisted of metronidazole at 1 mg/ml. The growth of E. histolytica trophozoites in each well was determined microscopically by measuring the diameters of the confluent cells in drug-containing wells relative to those in the nega- tive-control wells.; format: functional, organism-based
Toxoplasma gondii = assay: MMV: A total of 100ul of inoculum was added to each well (parasite/cell ratio, ~10:1; final volume, 200 ul). Six hours after inoculation, nonadherent parasites were removed, and 100 ul of complete DMEM (1% penicillin-streptomycin, 3% FBS) supplemented with inhibitors at different concentrations (2-fold serial dilutions starting from 30 uM) was added to all except the negative-control wells. Positive controls, consisting of pyrimethamine (PYR) and sulfadiazine (SDZ) (20-mg/ml stocks in DMSO), were tested at a 2mg/ml final concentration. Each test was performed in triplicate.; format: functional, organism-based; details: 6 h

In the case of `CCN1CCCC1CNc1[nH]cnc2c3cc(Cl)ccc3nc1-2` (stereo not given), the IC50 (Entamoeba histolytica) is reported as > 30 µM and the IC50 (Toxoplasma gondii) is reported as > 30 µM.

For `C[n+]1c2ccccc2nc2ccc(NCCO)cc21`, the IC50 (Entamoeba histolytica) was > 30 µM and the IC50 (Toxoplasma gondii) was > 30 µM.

For `O=C(Nc1ccccc1O)c1ccc(Oc2cccc(C(=O)Nc3ccccc3O)c2)cc1`, the IC50 (Entamoeba histolytica) was > 30 µM and the IC50 (Toxoplasma gondii) was 13.2 µM.

For `Cc1ccc(-c2cc3c(nn2)-c2ccccc2C3=O)cc1`, the IC50 (Entamoeba histolytica) was > 30 µM and the IC50 (Toxoplasma gondii) was > 30 µM.

For `Cc1ccc(Nc2nc(-c3ccccn3)cs2)cc1`, the IC50 (Entamoeba histolytica) was > 30 µM and the IC50 (Toxoplasma gondii) was > 30 µM.

For `N=c1n(CCN2CCCCC2)c2ccccc2n1CC(O)c1cccc(Br)c1` (stereo not given), the IC50 (Entamoeba histolytica) was > 30 µM and the IC50 (Toxoplasma gondii) was > 30 µM.

For `COc1cccc(O)c1CN1CCC2(CCCN(Cc3ccc(F)cc3)C2)C1` (stereo not given), the IC50 (Entamoeba histolytica) was > 30 µM and the IC50 (Toxoplasma gondii) was > 30 µM.

For `O=C(NCc1ccco1)C1CCN(S(=O)(=O)c2ccc(Cl)cc2)CC1`, the IC50 (Entamoeba histolytica) was > 30 µM and the IC50 (Toxoplasma gondii) was > 30 µM.

For `COc1ccc(C(=O)Nc2ccc3nc(N4CCCCC4)cc(C)c3c2)cc1OC`, the IC50 (Entamoeba histolytica) was > 30 µM and the IC50 (Toxoplasma gondii) was 25.7 µM.

With `FC(F)(F)c1ccc(Nc2nnnc3ccccc23)cc1` the IC50 (Entamoeba histolytica) was > 30 µM and the IC50 (Toxoplasma gondii) was > 30 µM.

For `c1ccc(-c2ccc(-c3nc4ccccc4[nH]3)cc2)cc1`, the IC50 (Entamoeba histolytica) was > 30 µM and the IC50 (Toxoplasma gondii) was > 30 µM.

In the case of `CCC(C)NCC(O)(c1ccc(Cl)cc1)c1ccc(Cl)cc1` (stereo not given), the IC50 (Entamoeba histolytica) is reported as > 30 µM and the IC50 (Toxoplasma gondii) is reported as > 30 µM.

With `COc1cccc(NC(=O)Cn2c(C)c(C#N)c3ccccc32)c1` the IC50 (Entamoeba histolytica) was > 30 µM and the IC50 (Toxoplasma gondii) was > 30 µM.

For `CCOc1cc2c(cc1OCC)C(c1cc(OC)c(O)cc1Cl)NCC2` (stereo not given), the IC50 (Entamoeba histolytica) was > 30 µM and the IC50 (Toxoplasma gondii) was > 30 µM.

`COCCNC(=O)c1ccc(OC2CCN(Cc3ccc(F)c(F)c3)CC2)c(Cl)c1` was tested, and the IC50 (Entamoeba histolytica) was > 30 µM and the IC50 (Toxoplasma gondii) was > 30 µM.

`CC(C)=CCN1CCC(C(=O)Nc2ccc(-c3nc4ccccc4[nH]3)cc2)CC1` was tested, and the IC50 (Entamoeba histolytica) was > 30 µM and the IC50 (Toxoplasma gondii) was > 30 µM.

`O=C(CCc1ccco1)NC1CCN(CC2(c3ccc(Cl)cc3)CCC2)CC1` was tested, and the IC50 (Entamoeba histolytica) was > 30 µM and the IC50 (Toxoplasma gondii) was 24 µM.

For `COc1cccc(C=Cc2nc(=O)c3ccccc3o2)c1OC`, the IC50 (Entamoeba histolytica) was > 30 µM and the IC50 (Toxoplasma gondii) was > 30 µM.

In the case of `FC(F)(F)c1cccc(Nc2nc(-c3ccccc3)nc3ncccc23)c1`, the IC50 (Entamoeba histolytica) is reported as > 30 µM and the IC50 (Toxoplasma gondii) is reported as > 30 µM.

With `CCN1CCN(c2cc(C)c3cc(NC(=O)c4ccc(OC)c(OC)c4)ccc3n2)CC1` the IC50 (Entamoeba histolytica) was > 30 µM and the IC50 (Toxoplasma gondii) was > 30 µM.

With `COc1ccc(C(=O)Nc2nonc2-c2ccc(OC)c(OC)c2)cc1Cl` the IC50 (Entamoeba histolytica) was > 30 µM and the IC50 (Toxoplasma gondii) was > 30 µM.

For `COc1ccc(CNC2CCN(c3ccc(NC(=O)c4cccc(Cl)c4)cc3)CC2)cc1OC`, the IC50 (Entamoeba histolytica) was > 30 µM and the IC50 (Toxoplasma gondii) was > 30 µM.

With `COCCN(C(=O)Cc1cccs1)C(C(=O)NCc1ccc(OC)cc1)c1ccc(C(C)C)cc1` (stereo not given) the IC50 (Entamoeba histolytica) was > 30 µM and the IC50 (Toxoplasma gondii) was > 30 µM.

With `CC(NCc1ccccc1)c1cc(Cl)ccc1O` (stereo not given) the IC50 (Entamoeba histolytica) was > 30 µM and the IC50 (Toxoplasma gondii) was 21.4 µM.

With `COc1ccc2c(c1)OC(O)(C(F)(F)C(F)(F)F)CC2=O` (stereo not given) the IC50 (Entamoeba histolytica) was > 30 µM and the IC50 (Toxoplasma gondii) was > 30 µM.

With `FC(F)(F)c1cccc(CNC2CCN(CCc3ccccc3)CC2)c1` the IC50 (Entamoeba histolytica) was > 30 µM and the IC50 (Toxoplasma gondii) was > 30 µM.

In the case of `Oc1ccc(Cl)cc1CNc1nc2ccccc2[nH]1`, the IC50 (Entamoeba histolytica) is reported as > 30 µM and the IC50 (Toxoplasma gondii) is reported as 26.8 µM.

`CCOc1cc(Cl)c(C(C)NC(=O)c2ccccc2)cc1OCC` (stereo not given) was tested, and the IC50 (Entamoeba histolytica) was > 30 µM and the IC50 (Toxoplasma gondii) was > 30 µM.

For `O=C(c1ccccc1F)N(Cc1ccc(Cl)cc1)c1ccccn1`, the IC50 (Entamoeba histolytica) was > 30 µM and the IC50 (Toxoplasma gondii) was > 30 µM.

`COc1ccc(C(=O)Nc2ccc(Cl)cc2C(=O)Nc2ccncc2)cc1` was tested, and the IC50 (Entamoeba histolytica) was > 30 µM and the IC50 (Toxoplasma gondii) was > 30 µM.

In the case of `O=C(Nc1ccc(CN2CCOCC2)cc1)c1ccc(-c2ccc(Br)cc2)o1`, the IC50 (Entamoeba histolytica) is reported as > 30 µM and the IC50 (Toxoplasma gondii) is reported as > 30 µM.

With `O=C(Nc1ccc(Cl)cc1)N1CCN(c2ccc3nncn3n2)CC1` the IC50 (Entamoeba histolytica) was > 30 µM and the IC50 (Toxoplasma gondii) was > 30 µM.

With `CN(C)c1ccc(-c2nc3cc(N)ccc3[nH]2)cc1` the IC50 (Entamoeba histolytica) was > 30 µM and the IC50 (Toxoplasma gondii) was > 30 µM.

`c1ccc2cc3c(Nc4ccc(N5CCOCC5)cc4)ccnc3cc2c1` was tested, and the IC50 (Entamoeba histolytica) was 15.6 µM and the IC50 (Toxoplasma gondii) was > 30 µM.

`O=C(CSc1ccc2nnc(-c3cccc(F)c3)n2n1)Nc1ccc2c(c1)OCO2` was tested, and the IC50 (Entamoeba histolytica) was > 30 µM and the IC50 (Toxoplasma gondii) was > 30 µM.

For `Cc1c(C)n(Cc2ccc(F)cc2)c2ccc(C(=O)NCc3ccco3)cc12`, the IC50 (Entamoeba histolytica) was > 30 µM and the IC50 (Toxoplasma gondii) was > 30 µM.

With `CCN(CC)c1ccc(NC(=O)c2cccs2)cc1` the IC50 (Entamoeba histolytica) was > 30 µM and the IC50 (Toxoplasma gondii) was > 30 µM.

`CCCCNCC(O)(c1ccc(Cl)cc1)c1ccc(Cl)cc1` was tested, and the IC50 (Entamoeba histolytica) was > 30 µM and the IC50 (Toxoplasma gondii) was > 30 µM.

In the case of `CCOC(=O)c1cn(CC)c2cc(N3CCCCC3)c(F)cc2c1=O`, the IC50 (Entamoeba histolytica) is reported as > 30 µM and the IC50 (Toxoplasma gondii) is reported as > 30 µM.

For `CCn1c(SCC(=O)Nc2cc(C(F)(F)F)ccc2Cl)nc2ccccc2c1=O`, the IC50 (Entamoeba histolytica) was > 30 µM and the IC50 (Toxoplasma gondii) was > 30 µM.

For `Cc1ccc(Cn2c(N3CCC(C(=O)NCc4cccs4)CC3)nc3ccccc32)cc1`, the IC50 (Entamoeba histolytica) was > 30 µM and the IC50 (Toxoplasma gondii) was > 30 µM.

For `O=C(Nc1ccsc1C(=O)NC1CCCCC1)c1ccc(F)cc1`, the IC50 (Entamoeba histolytica) was > 30 µM and the IC50 (Toxoplasma gondii) was > 30 µM.

In the case of `O=C(Nc1ccc(Cl)cc1C(=O)Nc1ccncc1)c1ccc(Cl)cc1Cl`, the IC50 (Entamoeba histolytica) is reported as > 30 µM and the IC50 (Toxoplasma gondii) is reported as 19 µM.

`O=C(Nc1cccc(C(F)(F)F)c1)c1cc(Cl)ccc1O` was tested, and the IC50 (Entamoeba histolytica) was > 30 µM and the IC50 (Toxoplasma gondii) was > 30 µM.

With `CCOc1cccc2sc(N(Cc3cccnc3)C(=O)C3CCCCC3)nc12` the IC50 (Entamoeba histolytica) was > 30 µM and the IC50 (Toxoplasma gondii) was > 30 µM.

`CCOc1ccc(-c2nonc2NC(=O)c2cccc(C)c2)cc1OCC` was tested, and the IC50 (Entamoeba histolytica) was > 30 µM and the IC50 (Toxoplasma gondii) was > 30 µM.

For `CCN(CC)c1cc(C)c2cc(NC(=O)c3cccc(OC)c3)ccc2n1`, the IC50 (Entamoeba histolytica) was > 30 µM and the IC50 (Toxoplasma gondii) was > 30 µM.

With `CC(C)(C)CC(C)(C)NCC(O)COc1ccc2c(c1)CCC2` (stereo not given) the IC50 (Entamoeba histolytica) was > 30 µM and the IC50 (Toxoplasma gondii) was > 30 µM.

With `CCOc1ccc(/C=C/c2nc(=O)c3ccccc3o2)cc1` the IC50 (Entamoeba histolytica) was > 30 µM and the IC50 (Toxoplasma gondii) was > 30 µM.

With `O=C(Nc1ccccc1O)c1ccc(-c2ccc(Cl)cc2Cl)o1` the IC50 (Entamoeba histolytica) was > 30 µM and the IC50 (Toxoplasma gondii) was > 30 µM.

With `O=C(Nc1nc(-c2ccccn2)cs1)c1ccccc1Br` the IC50 (Entamoeba histolytica) was > 30 µM and the IC50 (Toxoplasma gondii) was > 30 µM.

With `CC(O)(c1ccc(Cl)cc1)C(CN1CCCCC1)c1ccccc1` (stereo not given) the IC50 (Entamoeba histolytica) was > 30 µM and the IC50 (Toxoplasma gondii) was > 30 µM.

For `CCCCc1ccc(NS(=O)(=O)c2cc3c4c(c2)CCN4C(=O)CC3)cc1`, the IC50 (Entamoeba histolytica) was > 30 µM and the IC50 (Toxoplasma gondii) was > 30 µM.

In the case of `CCOc1ccc(-c2nc(NC(=O)c3cccc(S(C)(=O)=O)c3)sc2C)cc1`, the IC50 (Entamoeba histolytica) is reported as > 30 µM and the IC50 (Toxoplasma gondii) is reported as > 30 µM.

With `CCOc1ccccc1CNC(=O)C1c2ccccc2C(=O)N(CC(C)C)C1c1cccs1` (stereo not given) the IC50 (Entamoeba histolytica) was > 30 µM and the IC50 (Toxoplasma gondii) was > 30 µM.

In the case of `CCOC(=O)c1ccc2nc(-c3ccccc3)cc(O)c2c1`, the IC50 (Entamoeba histolytica) is reported as > 30 µM and the IC50 (Toxoplasma gondii) is reported as > 30 µM.

For `Cc1cc(Nc2ccc(Cl)cc2)n2nc(C(F)(F)F)nc2n1`, the IC50 (Entamoeba histolytica) was > 30 µM and the IC50 (Toxoplasma gondii) was > 30 µM.

For `COc1ccccc1N1CCN(C(CNS(=O)(=O)c2ccc(Cl)cc2)c2cccnc2)CC1` (stereo not given), the IC50 (Entamoeba histolytica) was > 30 µM and the IC50 (Toxoplasma gondii) was > 30 µM.

`CCCCCCOC(=O)C1=C(C)NC(=O)NC1c1ccccc1F` (stereo not given) was tested, and the IC50 (Entamoeba histolytica) was > 30 µM and the IC50 (Toxoplasma gondii) was > 30 µM.

`COc1ccc(C2Sc3ccccc3N=C3C2=C(O)c2ccccc23)cc1` (stereo not given) was tested, and the IC50 (Entamoeba histolytica) was > 30 µM and the IC50 (Toxoplasma gondii) was > 30 µM.

In the case of `CCN(CC)CCCNc1nc(-c2ccc(Cl)cc2)nc2ccccc12`, the IC50 (Entamoeba histolytica) is reported as > 30 µM and the IC50 (Toxoplasma gondii) is reported as > 30 µM.

In the case of `Cc1ccc(Nc2nc(NCCO)c3ccccc3n2)cc1C`, the IC50 (Entamoeba histolytica) is reported as > 30 µM and the IC50 (Toxoplasma gondii) is reported as > 30 µM.

In the case of `CC1CCCCN1CCCNC(=O)c1ccc2c(c1)sc1nc(-c3ccc(F)cc3)cn12` (stereo not given), the IC50 (Entamoeba histolytica) is reported as > 30 µM and the IC50 (Toxoplasma gondii) is reported as > 30 µM.

With `COc1ccc(NC(=O)C2c3ccccc3C(=O)N(CC(C)C)C2c2cccs2)cc1` (stereo not given) the IC50 (Entamoeba histolytica) was > 30 µM and the IC50 (Toxoplasma gondii) was > 30 µM.

`C=C(C)CCC(C)N1CCC(N2CCC(C(=O)NCCc3ccccc3)CC2)CC1` (stereo not given) was tested, and the IC50 (Entamoeba histolytica) was > 30 µM and the IC50 (Toxoplasma gondii) was 27.1 µM.
